Results reported in paper PMC2730737 (Biochemistry, 2009).
Where a chain is given by its changes, count along the chain named.

Experiments:
[1] = biological target: T1, WT AdoMetDC (Homo sapiens, UniProt P17707); experiment: Stopped-flow intrinsic protein fluorescence binding kinetics, WT AdoMetDC; settings: for intrinsic fluorescence change on rapid mixing with AdoMetDC: stopped-flow, excitation 298 nm, emission 340 nm
T1 sequence (P17707 1-67 limits assumed): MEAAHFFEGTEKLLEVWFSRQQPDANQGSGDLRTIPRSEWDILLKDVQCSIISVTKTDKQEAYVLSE
T1 sequence (P17707 68-334 limits assumed): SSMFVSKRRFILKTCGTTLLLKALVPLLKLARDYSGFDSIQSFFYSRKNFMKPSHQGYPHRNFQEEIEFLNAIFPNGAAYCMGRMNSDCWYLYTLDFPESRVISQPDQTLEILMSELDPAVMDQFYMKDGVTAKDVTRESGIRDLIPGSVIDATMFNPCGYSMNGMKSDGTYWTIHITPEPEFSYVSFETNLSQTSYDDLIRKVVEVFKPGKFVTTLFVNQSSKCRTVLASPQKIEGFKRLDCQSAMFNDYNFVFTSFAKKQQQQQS

[2] = modeling studies using NMR constraints, molecular mechanics; cited from earlier work
[3] = biological target: T2, AdoMetDC F223A mutant (Homo sapiens, UniProt P17707, F223A); experiment: Stopped-flow intrinsic protein fluorescence binding kinetics, F223A mutant; settings: single exponential fit
T2 sequence (P17707 1-67 limits assumed): T1 sequence (P17707 1-67 limits assumed)
T2 sequence (P17707 68-334 F223A limits assumed): T1 sequence (P17707 68-334 limits assumed) with F156A

[4] = biological target: T3, AdoMetDC (Homo sapiens, UniProt P17707); settings: cited from earlier work
T3 sequence (P17707 1-67 limits assumed): T1 sequence (P17707 1-67 limits assumed)
T3 sequence (P17707 68-334 limits assumed): T1 sequence (P17707 68-334 limits assumed)

Structure (SMILES)	k2 + k−2 ([1]; WT enzyme, hyperbolic fit of slow phase) [s⁻¹]	k−1 ([1]; WT enzyme, linear fit of fast phase, 25 °C, pH 7.5) [s⁻¹]	intrinsic fluorescence change on rapid mixing with AdoMetDC [1]	energy difference between the anti and syn conformations in solution [2] [kJ/mol]	k1 (slope) [3]	k−1 (y-intercept) [3] [s⁻¹]	IC50 [4] [µM]
C[S+](CC[C@H](N)C(=O)[O-])C[C@H]1O[C@@H](n2cnc3c(N)ncnc32)[C@H](O)[C@@H]1O (stereo partly drawn) [AdoMet, S-adenosylmethionine]	3.7 ± 0.2	33 ± 2	intrinsic fluorescence change was observed	-142	1.7 ± 0.3 × 10^−4 μM^−1s^−1	2.4 ± 0.2	
C[S+](C)C[C@H]1O[C@@H](n2cnc3c(N)ncnc32)[C@H](O)[C@@H]1O [MMTA, 5′-deoxy-5′-(dimethylsulfonio)adenosine]			too weak to measure				15
Nc1ncnc2c1ncn2[C@@H]1O[C@H](CSCC[C@H](N)C(=O)O)[C@@H](O)[C@H]1O [SAH, S-adenosylhomocysteine]			no significant change				
